Measured values from patent US9795139B2, “Molecules having pesticidal utility, and intermediates, compositions, and processes, related thereto” (priority 2015, dated 2017).
Where two headings read alike, the source gives them in different places.

Key:
Type in all cases: in vivo
[1] = system: Cabbage Looper (Trichoplusia ni, TRIPNI); test: Bioassay on Cabbage Looper (CL), 128-well diet tray assay; conditions: 168 h, read-out: CL % Control (or Mortality) rating
Description: (§1) Certain molecules disclosed in this document were tested against BAW and CL using procedures described in the following examples. In the reporting of the results, the “BAW & CL Rating Table” was used (See Table Section).
Bioassays on CL were conducted using a 128-well diet tray assay. one to five second instar CL larvae were placed in each well (3 mL) of the diet tray that had been previously filled with 1 mL of artificial diet to which 50 μg/cm^2 of the test molecule (dissolved in 50 μL of 90:10 acetone-water mixture) had been applied (to each of eight wells) and then allowed to dry. Trays were covered with a clear self-adhesive cover, vented to allow gas exchange, and held at 25° C., 14:10 light-dark for five to seven days. Percent mortality was recorded for the larvae in each well; activity in the eight wells was then averaged. The results are indicated in the table entitled “Table ABC: Biological Results” (See Table Section).

[2] = system: Yellow Fever Mosquito (Aedes aegypti, AEDSAE); conditions: about 1 day-old larvae, 96-well plate from 4000 ppm DMSO master, 3 days at room temperature
Description: Certain molecules disclosed in this document were tested against YFM using procedures described in the following paragraph. In the reporting of the results, the “GPA & YFM Rating Table” was used (See Table Section).
Master plates containing 400 μg of a molecule dissolved in 100 μL of dimethyl sulfoxide (DMSO) (equivalent to a 4000 ppm solution) are used. A master plate of assembled molecules contains 15 μL per well. To this plate, 135 μL of a 90:10 water/acetone mixture is added to each well. A robot is programmed to dispense 15 μL aspirations from the master plate into an empty 96-well shallow plate (“daughter” plate). There are 6 reps (“daughter” plates) created per master. The created “daughter” plates are then immediately infested with YFM larvae.
The day before plates are to be treated, mosquito eggs are placed in Millipore water containing liver powder to begin hatching (4 g. into 400 mL). After the “daughter” plates are created using the robot, they are infested with 220 μL of the liver powder/larval mosquito mixture (about 1 day-old larvae). After plates are infested with mosquito larvae, a non-evaporative lid is used to cover the plate to reduce drying. Plates are held at room temperature for 3 days prior to grading. After 3 days, each well is observed and scored based on mortality. The results are indicated in the table entitled “Table ABC: Biological Results” (See Table Section).

[3] = system: Beet Armyworm (Spodoptera exigua, LAPHEG); test: Bioassay on Beet Armyworm (BAW), 128-well diet tray assay; conditions: 168 h, read-out: BAW % Control (or Mortality) rating
Description: as §1
Bioassays on BAW were conducted using a 128-well diet tray assay. One to five second instar BAW larvae were placed in each well (3 mL) of the diet tray that had been previously filled with approximately 1.5 mL of artificial diet to which 50 μg/cm^2 of the test molecule (dissolved in 50 μL of 90:10 acetone-water mixture) had been applied (to each of eight wells) and then allowed to dry. Trays were covered with a clear self-adhesive cover, vented to allow gas exchange, and held at 25° C., 14:10 light-dark for five to seven days. Percent mortality was recorded for the larvae in each well; activity in the eight wells was then averaged. The results are indicated in the table entitled “Table ABC: Biological Results” (See Table Section).

[4] = 50 μg/cm^2 on artificial diet, second instar larvae, 25° C., five to seven days, average of eight wells

| Compound | mortality at 50 µg/cm2 [1, 4] [%] | YFM % Control (or Mortality) rating [2] | mortality at 50 µg/cm2 [3, 4] [%] | mortality at 50 µg/cm2 [1] [%] | mortality at 50 µg/cm2 [3] [%] |
| --- | --- | --- | --- | --- | --- |
| N#CC1(NC(=O)c2cc(NC(=O)[C@H]3[C@H](c4ccc(C(F)F)cc4)C3(Cl)Cl)ccc2Cl)CC1 (relative stereo) [Molecule F92, trans-2-Chloro-N-(1-cyanocyclopropyl)-5-(2,2-dichloro-3-(4-(difluoromethyl)-phenyl)cyclopropane-1-carboxamido)benzamide] | 50 to 100 | A (80-100) | 50 to 100 |  |  |
| O=C(NC1CCC(F)(F)CC1)c1cc(NC(=O)[C@H]2[C@H](c3cc(Cl)cc(Cl)c3)C2(Cl)Cl)ccc1Cl (relative stereo) [Molecule F43, trans-2-Chloro-5-(2,2-dichloro-3-(3,5-dichlorophenyl)cyclopropanecarboxamido)-N-(4,4-difluorocyclohexyl)benzamide] | 50 to 100 | A (80-100) | 50 to 100 |  |  |
| O=C(NC1CC1(F)F)c1cc(NC(=O)[C@H]2[C@H](c3cc(Cl)cc(Cl)c3)C2(Cl)Cl)ccc1Cl (relative stereo) [PF23, trans-2-Chloro-5-(2,2-dichloro-3-(3,5-dichlorophenyl)cyclopropane-1-carboxamido)-N-(2,2-difluorocyclopropyl)benzamide] | 50 to 100 | A (80-100) | 50 to 100 |  |  |
| O=C(NC1CCC(F)(F)CC1)c1cc(NC(=O)[C@H]2[C@H](c3ccc(Cl)c(Cl)c3)C2(Cl)Cl)ccc1Cl (relative stereo) [Molecule F44, trans-2-Chloro-5-(2,2-dichloro-3-(3,4-dichlorophenyl)cyclopropanecarboxamido)-N-(4,4-difluorocyclohexyl)benzamide] | 50 to 100 | A (80-100) | 50 to 100 |  |  |
| O=C(NC1COC1)c1cc(NC(=O)[C@H]2[C@H](c3cc(Cl)cc(Cl)c3)C2(Cl)Cl)ccc1Cl (relative stereo) [Molecule F53, trans-2-Chloro-5-(2,2-dichloro-3-(3,5-dichlorophenyl)cyclopropanecarboxamido)-N-(oxetan-3-yl)benzamide] | 50 to 100 | A (80-100) | 50 to 100 |  |  |
| CN(C(=O)c1cc(NC(=O)[C@H]2[C@H](c3ccc(Cl)c(Cl)c3)C2(Cl)Cl)ccc1Cl)C1(C#N)CC1 (relative stereo) [PF22, trans-2-Chloro-N-(1-cyanocyclopropyl)-5-(2,2-dichloro-3-(3,4-dichloro-phenyl)cyclopropane-1-carboxamido)-N-methylbenzamide] | 50 to 100 | B (More than 0-Less than 80) | 50 to 100 |  |  |
| N#CC1(NC(=O)c2cc(NC(=O)[C@H]3[C@H](c4ccc(C(F)F)c(Cl)c4)C3(Cl)Cl)ccc2Cl)CC1 (relative stereo) [Molecule F89, trans-2-Chloro-N-(1-cyanocyclopropyl)-5-(2,2-dichloro-3-(3-chloro-4-(difluoromethyl)phenyl)cyclopropane-1-carboxamido)benzamide] | 50 to 100 | A (80-100) | 50 to 100 |  |  |
| CCNC(=O)C1(NC(=O)c2cc(NC(=O)C3C(c4cc(Cl)cc(Cl)c4)C3(Cl)Cl)ccc2Cl)CC1 (stereo not drawn) [PF43, trans-2-Chloro-5-(2,2-dichloro-3-(3,5-dichlorophenyl)cyclopropane-1-carbox-amido)-N-(1-(ethylcarbamoyl)cyclopropyl)benzamide] | 50 to 100 | A (80-100) | 50 to 100 |  |  |
| O=C(NC1CC(F)(F)C1)c1cc(NC(=O)[C@H]2[C@H](c3ccc([N+](=O)[O-])cc3)C2(Cl)Cl)ccc1Cl (relative stereo) [Molecule F69, trans-2-chloro-5-(2,2-dichloro-3-(4-nitrophenyl)cyclopropane-1-carboxamido)-N-(3,3-difluorocyclobutyl)benzamide] | 50 to 100 | A (80-100) | 50 to 100 |  |  |
| O=C(NC1CC[S+]([O-])C1)c1cc(NC(=O)[C@H]2[C@H](c3cc(Cl)c(Cl)c(Cl)c3)C2(Cl)Cl)ccc1Cl (relative stereo) [PF18, trans-2-chloro-5-(2,2-dichloro-3-(3,4,5-trichloro-phenyl)cyclopropane-1-carboxamido)-N-(1-oxidotetrahydrothiophen-3-yl)-benzamide] | 50 to 100 | A (80-100) | 50 to 100 |  |  |
| C[C@]1(c2cc(Cl)cc(Cl)c2)[C@H](C(=O)Nc2ccc(Cl)c(C(=O)NC3CC(F)(F)C3)c2)C1(Cl)Cl (relative stereo) [Molecule F61, trans-2-chloro-5-(2,2-dichloro-3-(3,5-dichloro-phenyl)-3-methylcyclopropane-1-carboxamido)-N-(3,3-difluorocyclobutyl)-benzamide] | 50 to 100 | A (80-100) | 50 to 100 |  |  |
| C[C@@]1(c2cc(Cl)cc(Cl)c2)[C@H](C(=O)Nc2ccc(Cl)c(C(=O)NC3CC(F)(F)C3)c2)C1(Cl)Cl (relative stereo) [Molecule F62, cis-2-Chloro-5-(2,2-dichloro-3-(3,5-dichlorophenyl)-3-methylcyclopropane-1-carboxamido)-N-(3,3-difluorocyclobutyl)benzamide] | 0 to 50 | D (No activity noticed in this bioassay) | 0 to 50 |  |  |
| Cc1cc([C@H]2[C@H](C(=O)Nc3ccc(Cl)c(C(=O)NC4(C#N)CC4)c3)C2(Cl)Cl)cc(Cl)c1Cl (relative stereo) [Molecule F51, trans-2-Chloro-N-(1-cyanocyclopropyl)-5-(2,2-dichloro-3-(3,4-dichloro-5-methylphenyl)cyclopropanecarboxamido)benzamide] | 50 to 100 | D (No activity noticed in this bioassay) | 50 to 100 |  |  |
| O=C1CCC(NC(=O)c2cc(NC(=O)[C@H]3[C@H](c4ccc(F)c(Cl)c4)C3(Cl)Cl)ccc2Cl)CC1 (relative stereo) [Molecule F81, trans-2-Chloro-5-(2,2-dichloro-3-(3-chloro-4-fluorophenyl)cyclopropane-1-carboxamido)-N-(4-oxocyclohexyl)benzamide] | 50 to 100 | A (80-100) | 50 to 100 |  |  |
| N#CC1(NC(=O)c2cc(NC(=O)[C@H]3[C@H](c4cc(F)cc(C(F)F)c4)C3(Cl)Cl)ccc2Cl)CC1 (relative stereo) [Molecule F87, trans-2-Chloro-N-(1-cyanocyclopropyl)-5-(2,2-dichloro-3-(3-(difluoromethyl)-5-fluorophenyl)cyclopropane-1-carboxamido)benzamide] | 50 to 100 | A (80-100) | 50 to 100 |  |  |
| O=C(NC1CN(C(=O)C2CC2)C1)c1cc(NC(=O)[C@H]2[C@H](c3cc(Cl)cc(Cl)c3)C2(Cl)Cl)ccc1Cl (relative stereo) [PF9, trans-2-chloro-N-(1-(cyclopropanecarbonyl)-azetidin-3-yl)-5-(2,2-dichloro-3-(3,5-dichlorophenyl)cyclopropane-1-carboxamido)benzamide] | 50 to 100 | B (More than 0-Less than 80) | 50 to 100 |  |  |
| N#CC1(NC(=O)c2cc(NC(=O)C3C(c4cc(Cl)cc(Cl)c4)C3(Cl)Br)ccc2Cl)CC1 (stereo not drawn) [Molecule F72] |  | D (No activity noticed in this bioassay) |  | 50 to 100 | 50 to 100 |
